The values that follow come from patent publication US20230355599A1, “BIOMARKERS FOR CBL, AND COMPOSITIONS AND METHODS FOR THEIR USE” (NURIX THERAPEUTICS, INC., priority 2022, published 2023).

In one assay the test system is phosphorylated ZAP70. Briefly: Phosphorylated ZAP70 in circulating CD8+ T cells of patients, Phase 1 trial (flow cytometry). In kind it is in vivo, human. The method, then: [The procedure below names another target; the source lists this target under the same test.] Pharmacodynamic analysis of the proximal biomarker, phosphorylated HS1 is assessed in circulating CD8^+ T cells from patients that are being administered doses ranging from 5 to 50 mg of Compound 23 once daily and is being used to assess target engagement of Compound 23 as part of the dose/exposure-response profile. Whole blood is collected longitudinally and added into two types of TruCulture (Myriad) tubes. One tube contains media, and the second tube contains anti-CD3 and anti-CD28, which are subsequently crosslinked to induce cellular stimulation for pharmacodynamic analysis. Phosphorylated HS1 is assessed by flow cytometry pre and post dose on Cycle 1 Day 1 (C1D1) and Cycle 2 Day 1 (C2D1) to characterize single/multiple dose PD profiles.
% Maximal phosphorylated signal and % AUC are two commonly used parameters to assess the pharmacodynamic effects of drugs.
% Maximal phosphorylated signal refers to the maximum amount of a specific protein that becomes phosphorylated (i.e., modified by the addition of a phosphate group) in response to a drug or other stimulus. This parameter is often used to measure the activation of signaling pathways that are important for various cellular processes, including cell growth and differentiation, immune response, and metabolism.
% AUC, on the other hand, refers to the area under the curve (AUC) over time, expressed as a percentage of the maximum possible AUC. In summary, both % maximal phosphorylated signal and % AUC are useful parameters to assess the pharmacodynamic effects of drugs. % maximal phosphorylated signal is a measure of the activation of signaling pathways, while % AUC reflects the duration of the effect on PD signals. Both parameters can be used to evaluate the potency and duration of a drug's pharmacodynamic effects.
(In general: A flow cytometer gives signals particle by particle.)

The subject of the next assay is phosphorylated PLCγ2. Briefly: Phosphorylated PLCγ2 in cynomolgus macaque CD8+ T cells from whole blood in vitro (flow cytometry). In kind it is cell-based. Conditions: Macaca fascicularis, T-cell, whole blood from six cynomolgus macaques, 2 hrs 37° C., 2 μg/mL anti-CD3 & anti-CD28 + crosslinker 60 minutes, read-out: Average mean EC50±standard deviation, phosphorylated PLCγ2. The method, then: To assess these candidate clinical proximal biomarkers of Cbl-b inhibition on T cells, pharmacodynamic analysis was performed. Whole blood was obtained from cynomolgus macaque donors, then incubated with increasing concentrations of Compound 23. The response to Cbl-b inhibition on phosphorylated HS1, ZAP70 and PLCγ2 was measured in CD8^+ T cells using flow cytometry. This technique is highly quantitative and can measure multiple phosphorylation markers in different cell populations within the same sample.
DMSO (Dimethyl sulfoxide) was used to reconstitute Compound 23. Final concentration of DMSO was 0.05% in media for in vitro assays. […]
Stained cells were run on an Attune NxT Acoustic Focusing Flow Cytometer (Thermo Fisher, cat. No. A29004), and data was analyzed using FlowJo (v10.6.1) and GraphPad Prism (v8.00) software. Single lymphocytes were gated for CD8^+ cells (CD45^+/CD8^+) cells, and population frequencies were calculated for each population. The data is quantified by the percent positive. […] As protein becomes phosphorylated the fluorescence increases resulting in a larger fraction of the cells entering that gate. Each population was evaluated for % positive pY759-PLCγ2, pY397-HS1 levels, pY319/Syk (Y352)-ZAP70 levels.

The mark [1] stands for this setting: 5 mg once daily, n=1, cycle 1, day 1.
The mark [2] stands for this setting: 15 mg once daily, n=12, cycle 1, day 1.
Where [3] appears, read: 25 mg once daily, n=7, cycle 1, day 1.
The mark [4] stands for this setting: 50 mg once daily, n=2, cycle 1, day 1.

In the case of `C[C@H]1CCCN(Cc2cc3c(c(C(F)(F)F)c2)CN(c2cccc([C@]4(c5nncn5C)C[C@@H](C)C4)c2)C3=O)C1` [Compound 23], the “% of phosphorylated ZAP70 expressing CD8+ T cells (maximal)” value is on record as 47% in the assay on phosphorylated ZAP70 (setting [1]), 83% with phosphorylated ZAP70 (setting [2]), 82% with phosphorylated ZAP70 (setting [3]) and 85% in the assay with phosphorylated ZAP70 (setting [4]). Moreover, the “phosphorylated ZAP70 AUC” value is recorded as 734 in the assay with phosphorylated ZAP70 (setting [1]), 1641 with phosphorylated ZAP70 (setting [2]), 1506 with phosphorylated ZAP70 (setting [3]) and 1870 in the assay on phosphorylated ZAP70 (setting [4]). The “trend of maximal % pZAP70 with PK” value in the assay with phosphorylated ZAP70 (not statistically significant, p=0.06) was “Positive trend”. Also, the half-maximal effective concentration (EC50) in the assay on phosphorylated PLCγ2 turned out to be 0.121 ± 0.0374 µM.

The EC50 is the concentration needed to bring the measured effect to its halfway point.
